The values that follow come from ChEMBL document CHEMBL5032500, “Adenosine A2AR/A1R Antagonists Enabling Additional H3R Antagonism for the Treatment of Parkinson's Disease” (J Med Chem, 2021).

Experiment [1] concerns the target T1, Adenosine receptor A1 (Homo sapiens) (UniProt P30542).
T1 sequence (whole entry): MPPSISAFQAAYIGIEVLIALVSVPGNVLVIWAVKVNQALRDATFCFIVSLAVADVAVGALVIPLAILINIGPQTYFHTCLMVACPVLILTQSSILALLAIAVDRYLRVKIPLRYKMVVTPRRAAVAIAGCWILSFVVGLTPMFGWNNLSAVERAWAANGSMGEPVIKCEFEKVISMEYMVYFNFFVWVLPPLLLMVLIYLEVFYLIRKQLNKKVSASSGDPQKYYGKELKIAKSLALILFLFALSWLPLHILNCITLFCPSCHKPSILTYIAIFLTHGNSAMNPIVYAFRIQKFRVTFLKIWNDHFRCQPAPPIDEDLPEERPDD
The experiment in a line: Displacement of [3H]CCPA from human recombinant adenosine A1 receptor expressed in CHO cells at 1 uM by liquid scintillation counting analysis. It is filed as cell-based.

For a further experiment, the target named is Histamine H3 receptor (Homo sapiens, UniProt Q9Y5N1). The experiment in a line: Displacement of [3H] N-alpha methylhistamine from human recombinant histamine H3 receptor expressed in HEK293 cells measured after 90 mins. It is filed as cell-based. (In general: Displacement assays read how much labelled ligand stays bound in the presence of the test substance.)

The target of experiment [2] is T2, Adenosine receptor A3 (Homo sapiens) (UniProt P0DMS8).
T2 sequence (whole entry): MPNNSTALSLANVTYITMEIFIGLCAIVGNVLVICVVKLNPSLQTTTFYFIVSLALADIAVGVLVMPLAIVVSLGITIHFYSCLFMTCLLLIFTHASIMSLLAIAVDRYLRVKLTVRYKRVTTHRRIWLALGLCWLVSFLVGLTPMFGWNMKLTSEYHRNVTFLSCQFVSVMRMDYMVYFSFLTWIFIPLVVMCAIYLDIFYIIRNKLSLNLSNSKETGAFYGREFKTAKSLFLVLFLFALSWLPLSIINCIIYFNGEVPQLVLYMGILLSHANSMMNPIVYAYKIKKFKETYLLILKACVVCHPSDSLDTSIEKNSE
The experiment in a line: Displacement of [3H]PSB-11 from human recombinant adenosine A3 receptor expressed in CHO cells at 1 uM by liquid scintillation counting analysis. It is filed as cell-based.

The target of experiment [3] is T3, Adenosine receptor A1 (Homo sapiens, UniProt P30542).
T3 sequence (P30542 whole entry): T1 sequence (whole entry)
The experiment in a line: Displacement of [3H]CCPA from human recombinant adenosine A1 receptor expressed in CHO cells by liquid scintillation counting analysis. It is filed as cell-based.

The target of another experiment is T4, Adenosine receptor A3 (Homo sapiens, UniProt P0DMS8).
T4 sequence (P0DMS8 whole entry): T2 sequence (whole entry)
The experiment can be described thus: Displacement of [3H]PSB-11 from human recombinant adenosine A3 receptor expressed in CHO cells by liquid scintillation counting analysis. It is filed as cell-based.

Experiment [4] deals with T5, Adenosine receptor A2b (Homo sapiens, UniProt P29275).
T5 sequence (P29275 whole entry): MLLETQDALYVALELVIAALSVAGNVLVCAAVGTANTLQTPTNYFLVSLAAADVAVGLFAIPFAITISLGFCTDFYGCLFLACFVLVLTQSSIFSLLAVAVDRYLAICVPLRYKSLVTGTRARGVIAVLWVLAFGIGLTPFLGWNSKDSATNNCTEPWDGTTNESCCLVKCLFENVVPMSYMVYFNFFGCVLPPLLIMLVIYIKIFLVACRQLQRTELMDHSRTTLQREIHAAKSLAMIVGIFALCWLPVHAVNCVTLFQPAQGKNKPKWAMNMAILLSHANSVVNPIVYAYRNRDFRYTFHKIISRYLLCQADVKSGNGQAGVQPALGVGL
The experiment can be described thus: Displacement of [3H]PSB-603 from human recombinant adenosine A2B receptor expressed in CHO cells by liquid scintillation counting analysis. It is filed as cell-based.

Experiment [5] addresses T6, Adenosine receptor A2b (Homo sapiens) (UniProt P29275).
T6 sequence (whole entry): T5 sequence (P29275 whole entry)
The experiment in a line: Displacement of [3H]PSB-603 from human recombinant adenosine A2B receptor expressed in CHO cells at 1 uM by liquid scintillation counting analysis. It is filed as cell-based.

The target of experiment [6] is T7, Adenosine receptor A2a (Homo sapiens, UniProt P29274). The experiment in a line: Displacement of [3H]MSX-2 from human recombinant adenosine A2A receptor expressed in CHO cells by liquid scintillation counting analysis. It is filed as cell-based.
Experiment [7] concerns the target T3, Adenosine receptor A1. The experiment in a line: Binding affinity to human recombinant adenosine A1 receptor expressed in CHO cells using [3H]CCPA by functional activity assay. It is filed as cell-based.
For experiment [8], the target named is T5, Adenosine receptor A2b. The experiment in a line: Binding affinity to human recombinant adenosine A2B receptor expressed in CHO cells using [3H]PSB-603 by functional activity assay. It is filed as cell-based.
The subject of the next experiment is SH-SY5Y. The experiment can be described thus: Cytotoxicity against human SH-SY5Y cells assessed as remaining cell viability at 1000 nM incubated for 24 hrs. It is filed as functional.
Experiment [9] has as its target T7, Adenosine receptor A2a. The experiment can be described thus: Displacement of [3H]MSX-2 from human recombinant adenosine A2A receptor expressed in CHO cells at 1 uM by liquid scintillation counting analysis. It is filed as cell-based.

As usually defined, the inhibition is the change of the read-out against control, counted positive when it falls. Broadly, the Ki is the equilibrium dissociation constant of an inhibitor or competing ligand from its target. For orientation: EC50 means the concentration giving half of the maximal effect.

T7 sequence (P29274 whole entry): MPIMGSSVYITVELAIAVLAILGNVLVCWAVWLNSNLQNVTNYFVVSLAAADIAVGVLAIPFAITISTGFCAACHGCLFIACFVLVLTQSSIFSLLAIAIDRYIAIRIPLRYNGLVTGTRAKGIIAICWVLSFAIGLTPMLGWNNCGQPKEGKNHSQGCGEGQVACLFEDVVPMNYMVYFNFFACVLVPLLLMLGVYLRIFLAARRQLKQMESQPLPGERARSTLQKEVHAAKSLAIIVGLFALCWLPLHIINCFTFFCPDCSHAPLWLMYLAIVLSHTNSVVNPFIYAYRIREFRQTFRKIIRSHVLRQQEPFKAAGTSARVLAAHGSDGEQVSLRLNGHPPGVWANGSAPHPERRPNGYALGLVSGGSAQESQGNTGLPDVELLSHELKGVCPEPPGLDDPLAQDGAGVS
Sequence of Histamine H3 receptor (Q9Y5N1 whole entry): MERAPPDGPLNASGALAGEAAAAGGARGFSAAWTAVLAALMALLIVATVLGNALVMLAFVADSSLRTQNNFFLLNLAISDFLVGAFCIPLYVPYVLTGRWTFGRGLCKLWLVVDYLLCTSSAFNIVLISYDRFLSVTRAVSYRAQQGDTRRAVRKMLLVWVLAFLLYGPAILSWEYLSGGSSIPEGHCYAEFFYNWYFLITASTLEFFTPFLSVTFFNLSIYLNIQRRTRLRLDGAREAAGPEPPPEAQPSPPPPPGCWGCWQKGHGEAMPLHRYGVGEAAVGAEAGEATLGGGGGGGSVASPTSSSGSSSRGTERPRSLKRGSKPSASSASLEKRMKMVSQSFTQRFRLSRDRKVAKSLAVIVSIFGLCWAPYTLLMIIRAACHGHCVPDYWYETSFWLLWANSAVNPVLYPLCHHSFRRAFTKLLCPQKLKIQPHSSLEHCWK

In the case of `Nc1nc(-c2ccc(OCCCN3CCCCC3)cc2)c2c(n1)-c1ccc(OCCCN3CCCCC3)cc1C2=O`, the inhibition in [1] (filed as antagonist) worked out at 44%; in [2] it was 32%; in [5] it was 15%. In addition, the Ki at Histamine H3 receptor was 0.00031 µM; at Adenosine receptor A1 [3] it was at least 1 µM; at Adenosine receptor A3, above 1 µM; at Adenosine receptor A2b [4], above 1 µM; at Adenosine receptor A2a [6], 0.203 µM.
As to `Nc1nc(-c2ccccc2)c2c(n1)-c1cc(OCCN3CCOCC3)ccc1C2=O`, the values for the EC50 on Adenosine receptor A1 [7] and on Adenosine receptor A2b [8] were 0.048 µM and 0.23 µM, respectively. The Ki on Adenosine receptor A3 stood at 0.43 µM.
For the molecule `Nc1nc(-c2ccccc2)c2c(n1)-c1cc(OCCCN3CCCC3)ccc1C2=O`, the Ki on Histamine H3 receptor is 0.017 µM; on Adenosine receptor A1 [3], 0.0126 µM; at Adenosine receptor A3 it was 0.199 µM; at Adenosine receptor A2b [4], 0.0475 µM; at Adenosine receptor A2a [6], 0.00624 µM.
Take `Nc1nc(-c2ccccc2)c2c(n1)-c1ccc(OCCCN3CCCCC3)cc1C2=O`: the Ki is 0.036 µM on Histamine H3 receptor; 0.367 µM at Adenosine receptor A1 [3]; above 1 µM at Adenosine receptor A3; 0.114 µM on Adenosine receptor A2b [4]; 0.142 µM at Adenosine receptor A2a [6]. Further, the inhibition in [2] stood at 12%.
With `O=C(c1ccc(OCCCc2cnc[nH]2)cc1)C1CC1` [CIPROXIFAN], the Ki at Adenosine receptor A1 [3], on Adenosine receptor A3, at Adenosine receptor A2b [4] and on Adenosine receptor A2a [6] was above 1 µM each time.
As to `Nc1nc(-c2ccccc2)c2c(n1)-c1ccc(OCCCN3CCCC3)cc1C2`, the Ki was 0.011 µM at Histamine H3 receptor; 0.828 µM at Adenosine receptor A1 [3]; above 1 µM on Adenosine receptor A3; above 1 µM on Adenosine receptor A2b [4]; above 1 µM at Adenosine receptor A2a [6]. Also, the values for the inhibition (in [2]; at Adenosine receptor A2a [9] (filed as antagonist); in experiment [5]) were 35%, 40% and 25%, respectively. In addition, the Activity with SH-SY5Y was above 75%.
For the molecule `Nc1nc(-c2ccc(OCCCN3CCCCC3)cc2)c2c(n1)-c1ccccc1C2=O`, the Ki on Histamine H3 receptor is 0.00028 µM; on Adenosine receptor A1 [3] it was 0.133 µM; at Adenosine receptor A3 it was above 1 µM; at Adenosine receptor A2b [4] it was 0.331 µM; at Adenosine receptor A2a [6] it was 0.0355 µM. In [2], the inhibition amounted to 33%.
Turning to `Nc1nc(-c2ccccc2)c2c(n1)-c1ccc(OCCCN3CCCCC3)cc1C2`, the inhibition was found to be 24% in [1], 39% in experiment [2], 34% on Adenosine receptor A2a [9] and 34% in [5]. The Ki on Histamine H3 receptor is 0.0023 µM; on Adenosine receptor A1 [3], above 1 µM; at Adenosine receptor A3, above 1 µM; at Adenosine receptor A2b [4], above 1 µM; on Adenosine receptor A2a [6] it was above 1 µM.
In the case of `Nc1nc(-c2ccc(OCCCN3CCCCC3)cc2)c2c(n1)-c1ccc(OCCCN3CCCCC3)cc1C2`, the values for the inhibition in [1], in experiment [2] (filed as antagonist) and in experiment [5] were 23%, 50% and 13%, respectively. Also, the Ki on Histamine H3 receptor was 0.0006 µM; at Adenosine receptor A1 [3], above 1 µM; on Adenosine receptor A3, above 1 µM; at Adenosine receptor A2b [4] it was above 1 µM; at Adenosine receptor A2a [6], 0.941 µM.
As to `Nc1nc(-c2ccccc2)c2c(n1)-c1cc(OCCCN3CCCCC3)ccc1C2`, the Ki was 0.0045 µM at Histamine H3 receptor; 0.0187 µM at Adenosine receptor A1 [3]; 0.231 µM on Adenosine receptor A3; 0.0581 µM on Adenosine receptor A2b [4]; 0.00485 µM on Adenosine receptor A2a [6]. Moreover, the Activity in the experiment on SH-SY5Y is given as above 75%.
`Nc1nc(-c2ccc(OCCCN3CCCCC3)cc2)c2c(n1)-c1ccccc1C2`: the Ki on Histamine H3 receptor is 0.00049 µM; at Adenosine receptor A1 [3] it was 2.51 µM; on Adenosine receptor A3 it was above 1 µM; on Adenosine receptor A2b [4], above 1 µM; at Adenosine receptor A2a [6] it was 0.717 µM. Besides, the inhibition in [2] amounted to 24%; in experiment [5] it was 28%.
For the molecule `Nc1nc(-c2ccccc2)c2c(n1)-c1ccc(OCCCN3CCCC3)cc1C2=O`, the Ki on Histamine H3 receptor worked out at 0.031 µM; on Adenosine receptor A1 [3] it was 0.129 µM; at Adenosine receptor A3, 0.846 µM; at Adenosine receptor A2b [4], 0.18 µM; at Adenosine receptor A2a [6] it was 0.104 µM.
Consider `O=C(c1ccc(OCCCc2c[nH]cn2)cc1)C1CC1`, for which the inhibition was -6% in experiment [1], 3% in experiment [2], -1% on Adenosine receptor A2a [9] and 8% in [5].
Turning to `COCCOc1ccc(N2CCN(CCn3ncc4c3nc(N)n3nc(-c5ccco5)nc43)CC2)cc1` [PRELADENANT], the Ki at Adenosine receptor A3 and at Adenosine receptor A2b [4] was above 1 µM throughout.
With `O=C(c1ccc(OCCCN2CCCCC2)cc1)C1CC1`, the inhibition was -5% in experiment [1], -2% in experiment [2], -3% at Adenosine receptor A2a [9] and 0% in [5]. For the same molecule, the Ki at Adenosine receptor A1 [3], at Adenosine receptor A3, at Adenosine receptor A2b [4] and on Adenosine receptor A2a [6] was above 1 µM each time.
